Assay results taken from publication PMC10461224, “Development of an Affinity-Based Probe to Profile Endogenous Human Adenosine A3 Receptor Expression” (Journal of Medicinal Chemistry, 2023).

Molecular target: T1, hA3AR (Homo sapiens, UniProt P0DMS8)
T1 construct: expressed in transfected cells; host or cells: CHO cells (CHOhA3AR), gift of Prof; K.N. Klotz, University of Würzburg; used as membrane fractions or live cells
T1 sequence (P0DMS8 1-318): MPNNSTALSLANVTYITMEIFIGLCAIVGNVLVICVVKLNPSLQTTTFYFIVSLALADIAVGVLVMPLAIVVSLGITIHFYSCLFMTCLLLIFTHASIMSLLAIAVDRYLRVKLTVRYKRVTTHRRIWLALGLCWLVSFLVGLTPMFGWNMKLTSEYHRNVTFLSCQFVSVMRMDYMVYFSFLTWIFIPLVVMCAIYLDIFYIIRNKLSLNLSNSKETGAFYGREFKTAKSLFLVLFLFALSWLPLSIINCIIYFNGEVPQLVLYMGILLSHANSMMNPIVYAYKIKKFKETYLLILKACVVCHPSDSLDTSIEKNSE
Test: SDS-PAGE labeling in CHO membrane fractions, click to Cy5-N3
Assay type: binding
Settings: 50 nM probe, compared with 5 and 13
Protocol: Membrane fractions were prepared as mentioned above and diluted to a concentration of 1 μg/μL. 18 μL of membrane fractions from either CHOhA3AR or CHO-K1 cells were taken. 1 μL of competing ligand (PSB-11, unless noted otherwise) was added (final concentration: 1 μM in 0.05% DMSO in assay buffer), and the samples were shaken for 30 min at rt. 1 μL of affinity-based probe was then added (final concentration: 50 nM in 0.05% DMSO in assay buffer, unless noted otherwise), and the samples were shaken for 1 h at rt. Deglycosylation was initiated by addition of 0.5 μL of PNGaseF (5 U), 0.5 μL of MilliQ water for the control samples, and the samples were shaken for 1 h at rt. The click mix was freshly prepared by adding together 5 parts 100 mM CuSO4 in MilliQ, 3 parts 1 M sodium ascorbate (NaAsc) in MilliQ, 1 part 100 mM Tris(3-hydroxypropyltriazolylmethyl)amine (THPTA) in MilliQ, and 1 part 100 μM Cy5-N3 in DMSO. […] In-gel fluorescence was measured on a Bio-Rad Universal Hood III using Cy3 (605/50 filter) or Cy5 (695/55 filter) settings. […]
Gel images were analyzed using Image Lab software version 6.0.1 (Bio-Rad). Quantification was done in the following manner: the area under the curve (AUC) of the bands was selected using the ‘Lane Profile’ tab and the adjusted volumes were taken. […]

`C#CCOc1ccn2c(c1)nc1c2c(=O)n(CCC)c(=O)n1CCCNC(=O)c1ccc(S(=O)(=O)F)cc1` [compound 9, 4-((3-(2,4-Dioxo-8-(prop-2-yn-1-yloxy)-3-propyl-3,4-dihydropyrido[2,1-f]purin-1(2H)-yl)propyl)carbamoyl)benzenesulfonyl fluoride] was tested, and the “off-target labeling on gel” value was “fewer other proteins labeled”.
